From publication PMC7312911, “Affibody-Binding Ligands” (International Journal of Molecular Sciences, 2020) come the findings set out here.

Where no end group is shown, it is not given here.

Experiment [1] relates to anti-HSA affibody. Nature of the experiment: Affibody binding/elution in non-competitive conditions on peptide–Toyopearl, anti-HSA affibody. Particulars: 100 μL of 50:50 labeled anti-HSA and anti-IgG affibodies, total 1 mg/mL, in PBS pH 7.4; 50 μL resin; 1 h, room temperature; elution 0.2 M acetate pH 3.8; fluorescence spectroscopy. On the procedure: (§1) Ten peptides selected by sequence homology, namely, ARISRQ, IGKQRI, DIRIIR, QAAKRI, SHHSQR, DIHIRR, DHHKKA, DIRIQR, KSAYHS, and IHQRGQ, were tested as ligand candidates through binding studies in non-competitive conditions (pure affibody). The peptides were synthesized directly on Toyopearl AF-Amino 650 M resin by Fmoc/tBu synthesis; polymethacrylate-based Toyopearl resin was chosen as a chromatographic support for secondary screening in place of ChemMatrix, owing to its chemical resistance to the reagents and solvents used for peptide synthesis, low non-specific protein binding, and mechanical strength. The peptide–Toyopearl adsorbents were individually incubated with a 1:1 solution of AF594-labeled anti-HSA affibody and AF488-labeled anti-IgG affibody at the concentration of 1 mg/mL for 1 h at room temperature under gentle rotation. After washing with PBS, affibody elution (EL) was performed under acidic conditions (pH 3.8), followed by resin regeneration (R) using a harsh denaturing buffer (0.45% w/v 3-[(3-cholamidopropyl)dimethylammonio]-1-propanesulfonate (CHAPS) in 0.1 M glycine, pH 2.5). The amounts of affibodies in the unbound (UB), elution (EL), and regeneration (R) fractions, measured by fluorescence spectroscopy, were utilized to calculate the values of flow-through (FT) ratio (mass of affibody in the FT fraction vs. mass of fed antibody) and yield (mass of affibody eluted vs. mass of bound affibody), listed in Table 2.
(§2) The identified sequences were synthesized on Toyopearl AF-Amino 650 M resin by Fmoc/tBu synthesis to be tested for affibody binding in non-competitive mode. Aliquots of 50 μL of each peptide–Toyopearl adsorbent were transferred in a PCR tube, swollen in 20% methanol overnight, and copiously washed in 20% methanol to remove any residual chemical from peptide synthesis, before equilibrating in Milli-Q water followed by PBS, pH 7.4. Next, 100 μL of 50:50 solution of fluorescently labeled anti-HSA and anti-IgG affibodies (Section 2.3) at a total 1 mg/mL affibody concentration were incubated with every aliquot of peptide–Toyopearl resin for 1 h at room temperature under gentle rotation. Following incubation, the resins were pelleted by centrifugation, and the supernatant was collected and marked as “unbound” (UB) fraction. The resins were then washed with PBS and the supernatant were combined with the UB fractions. Protein elution (EL) was then performed by incubating the resins with 0.2 M acetate buffer at pH 3.8 (0.2 M acetic acid and 0.2 M sodium acetate at a 7:3 ratio) for 30 min at room temperature, and then by washing with the same elution buffer. Regeneration (R) was then performed by incubating the adsorbents with 100 mM glycine buffer at pH 2.5 added with 0.45% w/v CHAPS, at 4 °C for overnight. The collected elution fractions (EL and R) were finally equilibrated to neutral pH using PBS, pH 7.4. Finally, both UB and E fractions were diluted in PBS and analyzed by fluorescence spectroscopy.

The test system of experiment [2] is anti-IgG affibody. Nature of the experiment: Affibody binding/elution in non-competitive conditions on peptide–Toyopearl, anti-IgG affibody. The conditions noted are these: 100 μL of 50:50 labeled anti-HSA and anti-IgG affibodies, total 1 mg/mL, in PBS pH 7.4; 50 μL resin; 1 h, room temperature; elution 0.2 M acetate pH 3.8; fluorescence spectroscopy. How it is done: as §1, §2

Experiment [3] deals with 1:1 solution of AF594-labeled anti-HSA affibody and AF488-labeled anti-IgG affibody. The experiment in a line: Affibody binding/elution in non-competitive conditions on peptide–Toyopearl, affibody mixture. The conditions noted are these: for Yield (mass of affibody eluted vs. mass of bound affibody): non-competitive (pure affibody), PBS pH 7.4, 1 h, room temperature, elution pH 3.8, fluorescence spectroscopy; for capture of IgG-binding and HSA-binding affibodies compared: non-competitive, pure affibodies 1:1. How it is done:
as §1, §2

The test system of experiment [4] is anti-HSA affibody. Nature of the experiment: Affibody purification in competitive conditions (clarified E. coli cell lysate), anti-HSA affibody. In kind it is binding. The conditions noted are these: elution pH 3.8; for Recovery, anti-HSA affibody: 0.4 mg/mL affibody and 2 mg/mL E. coli HCPs, 200 μL feed, room temperature, eluted vs. loaded amount, fluorescence spectroscopy; for Purity, anti-HSA affibody: competitive, clarified E. coli cell lysate, densitometric analysis of EL lanes, SDS-PAGE. How it is done:
(§3) The adsorbents IGKQRI–GSG–Toyopearl, IHQRGQ–GSG–Toyopearl, KSAYHS–GSG–Toyopearl, and DIRIIR–GSG–Toyopearl resins were utilized to evaluate the ability of the selected sequences to purify affibody molecules from complex sources. To this end, a feed sample was prepared by spiking fluorescently labeled anti-HSA and anti-IgG affibodies at a 1:1 molar ratio into clarified E. coli cell lysate, to obtain a final concentration of 0.4 mg/mL of affibody and 2 mg/mL of bacterial HCPs. The peptide–Toyopearl adsorbents were incubated with 200 μL of feed sample for 30 min at room temperature under gentle rotation. The unbound (UB) and elution (EL) fractions were analyzed by fluorescence spectroscopy and SDS-PAGE (Figure 1) to determine the values of recovery and purity for both affibody products (Table 3). It is noted that the mass of the affibody product measured electrophoretically appears to be double than the theoretical 6.5 kDa; this is likely due to dimerization of the affibodies by formation of a disulfide bond through their C-terminal cysteine residues.
(§4) Three sequences selected in Section 2.6 were then evaluated for affibody binding in competitive mode. Aliquots of 100 μL of the peptide–Toyopearl adsorbents were swollen and equilibrated as described in Section 2.6. The feed sample was prepared by combining 100 μL of equimolar solution of fluorescently labeled anti-HSA and anti-IgG affibodies at a total 2 mg/mL affibody concentration with 400 μL of clarified E. coli cell lysate at the adjusted concentration of host cell proteins (HCPs) of 2.5 mg/mL, to obtain a final concentration of 0.4 mg/mL of affibody and 2 mg/mL of HCPs. Next, 200 μL of feed samples were incubated with each aliquot of wet peptide–Toyopearl resin for 2 h at room temperature under gentle rotation. After incubation, unbound (UB) and elution (EL) fractions were obtained as described in Section 5.2.5; they were then analyzed by fluorescence spectroscopy to determine the yield of both affibodies and finally by SDS-PAGE to determine the total purity of the eluted affibody products.
(§5) The collected fractions were desalted into phosphate buffer at pH 7.4 using Amicon Ultra 0.5-mL centrifugal filters (3 kDa MWCO). Based on the total protein concentration determined by Bradford assay, the collected fractions were adjusted at a total protein concentration of 0.1 mg/mL, diluted 1:1 with 2× Laemmli sample buffer containing 5% β-mercaptoethanol, and incubated at 100 °C for 5 min. Next, 20 µL of each sample was loaded onto each well of a 12% Mini PROTEAN® TGX precast electrophoresis gel. Then, 10 µL of Precision Plus Protein TM Dual Color Standards diluted 100× in Laemmli sample buffer was loaded in the first and last wells. Gels were electrophoresed at 100 V constant for 95 min using a Mini PROTEAN Tetra Cell (Bio-Rad, Hercules, CA, USA) linked to a PowerPac 300 power supply (Bio-Rad). Gels were fixed in 10% acetic acid, 40% ethanol in MilliQ water for 1 h. Fixed gels were washed with MilliQ water and Coomassie stained. Imaging and densitometric analysis were performed with a GelDoc XR+ (Bio-Rad) and Image Lab software (Bio-Rad) with band intensities scaled to the intensity of an affibody standard.

Experiment [5] has as its system anti-IgG affibody. The experiment in a line: Affibody purification in competitive conditions (clarified E. coli cell lysate), anti-IgG affibody. Format: binding. The conditions noted are these: elution pH 3.8; for Recovery, anti-IgG affibody: 0.4 mg/mL affibody and 2 mg/mL E. coli HCPs, 200 μL feed, room temperature, eluted vs. loaded amount, fluorescence spectroscopy; for Purity, anti-IgG affibody: competitive, clarified E. coli cell lysate, densitometric analysis of EL lanes, SDS-PAGE. On the procedure: as §3, §4, §5

Experiment [6] deals with anti-IgG, anti-HSA, and anti-ErbB2 affibodies. Nature of the experiment: Langmuir adsorption isotherms, all three affibodies. In kind it is binding.
Method: The adsorption isotherms of anti-IgG, anti-HSA, and anti-ErbB2 affibodies on IGKQRI–GSG–Toyopearl resin were performed as described in prior work [37, 51]. Toyopearl resins functionalized with human IgG and serum albumin were utilized as corresponding positive controls, while Toyopearl® HW-40F was utilized as a negative control. Briefly, the adsorbents were incubated with solutions of target affibody at concentrations ranging between 0.01 and 2 mg/mL until binding equilibrium was reached (2.5 h). The values of bound affibody per volume of resin (q) and the corresponding equilibrium concentration of unbound affibody (C*) were fit to a Langmuir isotherm model to determine the value of maximum binding capacity (Qmax) and dissociation constant (KD,Langmuir).
Eight 50-µL aliquots of IGKQRI–GSG–Toyopearl resin were initially equilibrated in PBS at pH 7.4. Eight 0.2-mL solutions of anti-hIgG, anti-hHSA, and anti-ErbB2 affibodies in PBS at concentrations ranging from 0.01 to 2 mg/mL were prepared and incubated with the aliquots of IGKQRI–GSG–Toyopearl resin for 2.5 h at room temperature under mild shaking. […] The supernatant and washing solutions were combined and analyzed by fluorescence spectroscopy to determine the equilibrium concentration of affibody solution. The mass of affibody bound by the resin was determined by mass balance. […]

ARISRQ: the “mFT/mE (Anti-HSA), flow-through elution mass ratio” value with anti-HSA affibody [1] was determined as 1.709. For the same substance, the “mFT/mE (Anti-IgG), flow-through elution mass ratio” value in the experiment with anti-IgG affibody [2] is recorded as 0.885. Further, the “Yield (mass of affibody eluted vs. mass of bound affibody)” value in experiment [3] is on record as 51.7%.
In the same order, the values of DHHKKA are 2.039, 1.256 and 38.5%.
For DIHIRR, the “mFT/mE (Anti-HSA), flow-through elution mass ratio” value in the experiment with anti-HSA affibody [1] is reported as 0.473. Moreover, the “mFT/mE (Anti-IgG), flow-through elution mass ratio” value with anti-IgG affibody [2] is given as 1.277. In addition, the “Yield (mass of affibody eluted vs. mass of bound affibody)” value in experiment [3] is 40.4%.
With DIRIIR, the “mFT/mE (Anti-HSA), flow-through elution mass ratio” value with anti-HSA affibody [1] amounted to 1.553. The “mFT/mE (Anti-IgG), flow-through elution mass ratio” value with anti-IgG affibody [2] is on record as 0.707. Besides, in the experiment with anti-HSA affibody [4], the “Recovery, anti-HSA affibody” value is listed as 74.9% ± 3.6% and the “Purity, anti-HSA affibody” value was found to be 96.2%. Besides, in the experiment with anti-IgG affibody [5], the “Recovery, anti-IgG affibody” value is reported as 78.3% ± 2.5% and the “Purity, anti-IgG affibody” value is 96.5%.
As to DIRIQR, the “mFT/mE (Anti-HSA), flow-through elution mass ratio” value in the experiment with anti-HSA affibody [1] amounted to 2.401. Besides, the “mFT/mE (Anti-IgG), flow-through elution mass ratio” value with anti-IgG affibody [2] is given as 0.445. Moreover, the “Yield (mass of affibody eluted vs. mass of bound affibody)” value in experiment [3] came out at 39.5%.
Consider IGKQRI [IGKQRI], for which the “mFT/mE (Anti-HSA), flow-through elution mass ratio” value in the experiment with anti-HSA affibody [1] was 0.628. For the same substance, in the experiment with anti-IgG affibody [2], the “mFT/mE (Anti-IgG), flow-through elution mass ratio” value stood at 0.448. Besides, the “capture of IgG-binding and HSA-binding affibodies compared” value in experiment [3] is “equal capture of IgG-binding and HSA-binding affibodies”. In addition, in the experiment with anti-HSA affibody [4], the “Recovery, anti-HSA affibody” value was 95.2% ± 4.6% and the “Purity, anti-HSA affibody” value is listed as 94.1%. In the experiment on anti-IgG affibody [5], the “Recovery, anti-IgG affibody” value is given as 97.2% ± 1.5% and the “Purity, anti-IgG affibody” value came to 95.8%. Moreover, the “binding of all target affibodies compared” value in experiment [6] (Langmuir isotherms) was “comparable affinity and binding capacity”. In addition, the “binding capacity (Qmax), summary” value in experiment [6] (static binding, pure affibodies, summary over three affibodies) is ~ 5 mg affibody per mL of resin.
In the case of IHQRGQ, the “mFT/mE (Anti-HSA), flow-through elution mass ratio” value with anti-HSA affibody [1] is on record as 0.781. Moreover, in the experiment on anti-IgG affibody [2], the “mFT/mE (Anti-IgG), flow-through elution mass ratio” value amounted to 0.446. Moreover, the “capture of IgG-binding and HSA-binding affibodies compared” value in experiment [3] is “equal capture of IgG-binding and HSA-binding affibodies”. In addition, in the experiment with anti-HSA affibody [4], the “Recovery, anti-HSA affibody” value was 96.1% ± 2.4% and the “Purity, anti-HSA affibody” value is 92.6%. Also, in the experiment with anti-IgG affibody [5], the “Recovery, anti-IgG affibody” value was 95.3% ± 4.5% and the “Purity, anti-IgG affibody” value worked out at 93.1%.
As for KSAYHS, the “mFT/mE (Anti-HSA), flow-through elution mass ratio” value in the experiment with anti-HSA affibody [1] was determined as 0.796. Also, the “mFT/mE (Anti-IgG), flow-through elution mass ratio” value in the experiment on anti-IgG affibody [2] came out at 0.405. Moreover, the “capture of IgG-binding and HSA-binding affibodies compared” value in experiment [3] is “equal capture of IgG-binding and HSA-binding affibodies”. In addition, in the experiment with anti-HSA affibody [4], the “Recovery, anti-HSA affibody” value is given as 89.5% ± 0.7% and the “Purity, anti-HSA affibody” value was found to be 96.3%. Moreover, in the experiment on anti-IgG affibody [5], the “Recovery, anti-IgG affibody” value is listed as 88.6% ± 3.4% and the “Purity, anti-IgG affibody” value worked out at 96.4%.
For QAAKRI, the “mFT/mE (Anti-HSA), flow-through elution mass ratio” value in the experiment on anti-HSA affibody [1] was found to be 0.801. For the same substance, the “mFT/mE (Anti-IgG), flow-through elution mass ratio” value in the experiment on anti-IgG affibody [2] was found to be 2.245. In addition, in experiment [3], the “Yield (mass of affibody eluted vs. mass of bound affibody)” value worked out at 35%.
On to SHHSQR, for which the “mFT/mE (Anti-HSA), flow-through elution mass ratio” value in the experiment with anti-HSA affibody [1] was determined as 1.387. Further, the “mFT/mE (Anti-IgG), flow-through elution mass ratio” value in the experiment with anti-IgG affibody [2] is reported as 1.238. In experiment [3], the “Yield (mass of affibody eluted vs. mass of bound affibody)” value was 44.3%.
